The source made the active and inactive calls.

In assay [1] the target is T1, Neuropeptide Y receptor type 1 (Homo sapiens, UniProt P25929).
T1 sequence (P25929 whole entry): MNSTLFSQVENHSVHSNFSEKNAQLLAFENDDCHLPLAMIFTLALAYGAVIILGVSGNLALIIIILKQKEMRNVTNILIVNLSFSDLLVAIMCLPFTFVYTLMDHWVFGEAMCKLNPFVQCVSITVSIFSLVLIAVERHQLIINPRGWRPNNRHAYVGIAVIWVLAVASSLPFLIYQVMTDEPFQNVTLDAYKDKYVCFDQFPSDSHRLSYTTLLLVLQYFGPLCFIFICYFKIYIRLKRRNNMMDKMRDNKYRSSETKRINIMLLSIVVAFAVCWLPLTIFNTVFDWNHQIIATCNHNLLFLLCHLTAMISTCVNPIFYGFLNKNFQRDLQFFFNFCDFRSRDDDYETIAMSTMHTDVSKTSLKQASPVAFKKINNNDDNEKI
The assay is described as follows: Fluorescence-based counterscreen for agonists of NPY-Y2: cell-based high-throughput dose response assay for agonists of NPY-Y1. The class given is functional. On the technique in general: The purpose of a counterscreen is to sort out artefacts and off-target activity.

A further assay deals with HEK293. The assay is described as follows: Fluorescence-based counterscreen for potentiators or agonists of NPY-Y2: cell-based high-throughput dose response assay to identify inhibitors of cyclic nucleotide gated ion channel (CNGC) activity. In this assay, the parental HEK293 cell line transfected with a cyclic-nucleotide gated ion channel (CNGC)-based cAMP sensor is used to measure inhibition of isoproterenol-induced CNGC activity by test compound. The class given is functional. The conditions noted are these: Homo sapiens.

The target of assay [2] is T2, Neuropeptide Y receptor type 2 (Homo sapiens, UniProt P49146).
T2 sequence (P49146 whole entry): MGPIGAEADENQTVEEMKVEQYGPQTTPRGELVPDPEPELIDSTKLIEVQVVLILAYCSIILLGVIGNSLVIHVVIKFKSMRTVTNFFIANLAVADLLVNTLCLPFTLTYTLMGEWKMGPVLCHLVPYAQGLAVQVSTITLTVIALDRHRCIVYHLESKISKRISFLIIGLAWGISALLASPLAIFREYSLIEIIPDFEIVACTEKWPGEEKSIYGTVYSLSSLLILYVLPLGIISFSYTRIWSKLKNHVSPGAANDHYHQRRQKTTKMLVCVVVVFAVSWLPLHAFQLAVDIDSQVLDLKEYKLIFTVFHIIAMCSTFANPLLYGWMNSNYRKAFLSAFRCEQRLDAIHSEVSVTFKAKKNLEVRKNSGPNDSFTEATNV
The assay is described as follows: Fluorescence-based cell-based high-throughput dose response assay for agonists of NPY-Y2. [Related pubchem assays: 1703 (Screening assay (CNGC inhibitors).), 1359 (Screening assay (NPY-Y2 potentiators or agonists).), 1304 (Screening assay (NPY-Y1 potentiators or agonists).), 1710 (Screening assay (NPY-Y2 agonists).), 1791 (Summary AID.)]. The class given is functional.

The nature of assay [3]: blockers of bursicon-stimulated LGR2 cAMP reporter – cell-based, HEK293, CRE-luciferase reporter, cherry pick, set 2, dose response (AID 743343).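 Further: transfected cells were stimulated with diluted bursicon conditioned medium after compound addition.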 The class given is functional. For orientation: Reporter assays use an easily measured gene product as a stand-in for the process of interest.
A short description of assay [4]: A549 cell cytotoxicity, dose response, cytotoxicity control, plate reader, cherry-pick, antagonist series (AID 743412). The class given is functional, cell-based.
A short description of assay [5]: toxicity toward HepG2 liver cells – cell-based, plate reader, cherry-pick, antagonist series, cytotoxicity control, dose response (AID 743416). The class given is functional.
A short description of assay [6]: Luminescence-based counterscreen assay for KLF5 inhibitors: dose response cell-based high throughput screening assay to identify cytotoxic compounds using the IEC-6 intestinal epithelial cell line. [Related pubchem assays: 1700 (Primary screen.), 1834 (Confirmation screen.), 1858 (Summary AID.), 1905 (Counterscreen.)]. The class given is functional.
A short description of assay [7]: blockade of melanocortin 4 receptor signaling – cell-based, plate reader, cherry pick, counter-screen for LGR2 antagonist project, dose response (AID 743444).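 Further: transfected HEK 293 cells stimulated with alpha-MSH peptide; potency of inhibitors of the alpha-MSH evoked signal.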 The class given is functional.
Assay [8] deals with Heat shock 70 kDa protein 1A (Homo sapiens, UniProt P0DMV8). The assay is described as follows: inhibition of Hsp70 binding activity – biochemical, fluorescence polarization, SAR follow-up (AID 1072). For orientation: In fluorescence polarisation assays a small probe gives low polarisation when free and higher when bound to something large.
Chain of Heat shock 70 kDa protein 1A (P0DMV8 whole entry): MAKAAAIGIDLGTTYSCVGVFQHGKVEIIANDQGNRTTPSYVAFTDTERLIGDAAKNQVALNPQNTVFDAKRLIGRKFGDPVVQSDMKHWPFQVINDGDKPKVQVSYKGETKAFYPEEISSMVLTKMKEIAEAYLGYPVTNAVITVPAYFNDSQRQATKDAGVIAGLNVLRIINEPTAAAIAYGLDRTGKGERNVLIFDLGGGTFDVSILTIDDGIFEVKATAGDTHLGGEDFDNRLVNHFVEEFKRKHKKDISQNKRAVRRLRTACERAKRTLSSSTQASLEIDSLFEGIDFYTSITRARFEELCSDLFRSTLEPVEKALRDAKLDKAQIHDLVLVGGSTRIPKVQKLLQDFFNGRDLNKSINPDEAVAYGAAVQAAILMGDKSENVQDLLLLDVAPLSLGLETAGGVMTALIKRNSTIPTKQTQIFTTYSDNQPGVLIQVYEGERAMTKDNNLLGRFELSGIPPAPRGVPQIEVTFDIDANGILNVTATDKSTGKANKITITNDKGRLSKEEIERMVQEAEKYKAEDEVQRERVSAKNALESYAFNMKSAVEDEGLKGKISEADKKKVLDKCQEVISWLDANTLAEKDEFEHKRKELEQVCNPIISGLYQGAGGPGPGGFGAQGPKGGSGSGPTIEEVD
Assay [9] concerns the target Glyceraldehyde-3-phosphate dehydrogenase (Homo sapiens, UniProt P04406).
Assay [10] concerns the target T3, Tyrosine-protein phosphatase non-receptor type 7 (Homo sapiens, UniProt P35236).
T3 sequence (P35236 whole entry): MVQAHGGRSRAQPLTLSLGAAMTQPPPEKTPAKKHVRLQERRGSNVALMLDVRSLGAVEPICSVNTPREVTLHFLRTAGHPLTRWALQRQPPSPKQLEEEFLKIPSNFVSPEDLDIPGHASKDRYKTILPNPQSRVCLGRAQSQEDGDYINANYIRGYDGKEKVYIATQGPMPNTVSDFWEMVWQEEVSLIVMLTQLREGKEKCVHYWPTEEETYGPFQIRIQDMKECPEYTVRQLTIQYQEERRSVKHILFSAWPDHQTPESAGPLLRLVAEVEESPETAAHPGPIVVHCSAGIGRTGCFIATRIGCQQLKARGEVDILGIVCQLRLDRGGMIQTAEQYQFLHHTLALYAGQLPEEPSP
The class given is functional.

For assay [11], the target named is T4, Dual specificity protein phosphatase 6 (Rattus norvegicus, UniProt Q64346).
T4 sequence (Q64346 whole entry): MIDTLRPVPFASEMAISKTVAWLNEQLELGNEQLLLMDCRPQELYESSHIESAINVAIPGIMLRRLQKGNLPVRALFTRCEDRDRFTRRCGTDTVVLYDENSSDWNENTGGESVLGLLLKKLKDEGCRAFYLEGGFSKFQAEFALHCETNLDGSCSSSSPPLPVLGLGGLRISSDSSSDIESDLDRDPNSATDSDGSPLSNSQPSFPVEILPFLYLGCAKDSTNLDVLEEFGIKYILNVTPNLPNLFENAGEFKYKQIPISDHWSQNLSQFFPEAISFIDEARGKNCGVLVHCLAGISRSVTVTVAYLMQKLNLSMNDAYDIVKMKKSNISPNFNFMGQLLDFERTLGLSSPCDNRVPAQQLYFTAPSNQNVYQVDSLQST

The target in assay [12] is T4, Dual specificity protein phosphatase 6. The class given is functional.
Assay [13] has as its target Heat shock cognate 71 kDa protein (Homo sapiens, UniProt P11142). The assay is described as follows: In Vitro Hsc70 Dose Response Fluorescence Polarization Assay. [Related pubchem assays: 1072 ].
A further assay addresses Bcl-2-like protein 10 (Homo sapiens, UniProt Q9HD36). The assay is described as follows: Concentration-response of Bcl-B inhibitors by biochemical FP with TR3 (AID 1243). The class given is functional.
Assay [14] concerns the target Mothers against decapentaplegic homolog 3 (Homo sapiens, UniProt P84022). The assay is described as follows: blockers of Smad3 complex formation in lysate – cell lysate, secondary confirmation, chemiluminescent ELISA, HEK293 lysate, dose response (AID 1058). The class given is functional.

Chain of Glyceraldehyde-3-phosphate dehydrogenase (P04406 whole entry): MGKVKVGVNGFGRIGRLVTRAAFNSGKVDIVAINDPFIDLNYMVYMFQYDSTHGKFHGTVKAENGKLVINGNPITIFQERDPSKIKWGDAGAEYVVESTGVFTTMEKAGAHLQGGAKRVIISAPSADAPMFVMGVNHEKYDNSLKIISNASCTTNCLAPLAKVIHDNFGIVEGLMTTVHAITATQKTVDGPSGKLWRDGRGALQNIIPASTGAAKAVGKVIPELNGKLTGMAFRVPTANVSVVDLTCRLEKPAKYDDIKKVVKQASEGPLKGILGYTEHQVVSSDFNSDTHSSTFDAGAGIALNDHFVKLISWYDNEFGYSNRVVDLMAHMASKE
Chain of Bcl-2-like protein 10 (Q9HD36 whole entry): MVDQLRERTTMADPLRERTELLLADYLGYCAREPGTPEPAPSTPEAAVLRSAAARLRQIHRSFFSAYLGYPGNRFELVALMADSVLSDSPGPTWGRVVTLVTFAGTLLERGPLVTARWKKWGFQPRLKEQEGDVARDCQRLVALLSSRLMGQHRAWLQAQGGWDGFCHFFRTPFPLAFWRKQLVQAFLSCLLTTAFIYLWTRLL
Chain of Heat shock cognate 71 kDa protein (P11142 whole entry): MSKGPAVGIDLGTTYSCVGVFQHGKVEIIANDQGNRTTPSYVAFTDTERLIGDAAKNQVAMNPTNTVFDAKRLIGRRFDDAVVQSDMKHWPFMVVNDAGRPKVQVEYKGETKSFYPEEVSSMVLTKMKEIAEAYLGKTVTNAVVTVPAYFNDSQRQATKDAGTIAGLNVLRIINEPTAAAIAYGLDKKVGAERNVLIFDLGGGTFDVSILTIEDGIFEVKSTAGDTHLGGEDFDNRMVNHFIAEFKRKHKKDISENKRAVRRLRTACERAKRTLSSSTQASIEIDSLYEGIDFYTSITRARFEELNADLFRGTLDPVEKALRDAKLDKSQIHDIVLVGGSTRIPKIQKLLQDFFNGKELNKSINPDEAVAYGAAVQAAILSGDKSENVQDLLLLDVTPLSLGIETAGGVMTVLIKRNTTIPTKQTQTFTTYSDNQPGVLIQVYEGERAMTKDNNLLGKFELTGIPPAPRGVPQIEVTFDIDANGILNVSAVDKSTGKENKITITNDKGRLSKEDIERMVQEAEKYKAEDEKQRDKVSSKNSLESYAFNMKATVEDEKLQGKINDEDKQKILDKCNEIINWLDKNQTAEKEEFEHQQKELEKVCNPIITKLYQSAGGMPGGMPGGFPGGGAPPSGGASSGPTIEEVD
Chain of Mothers against decapentaplegic homolog 3 (P84022 whole entry): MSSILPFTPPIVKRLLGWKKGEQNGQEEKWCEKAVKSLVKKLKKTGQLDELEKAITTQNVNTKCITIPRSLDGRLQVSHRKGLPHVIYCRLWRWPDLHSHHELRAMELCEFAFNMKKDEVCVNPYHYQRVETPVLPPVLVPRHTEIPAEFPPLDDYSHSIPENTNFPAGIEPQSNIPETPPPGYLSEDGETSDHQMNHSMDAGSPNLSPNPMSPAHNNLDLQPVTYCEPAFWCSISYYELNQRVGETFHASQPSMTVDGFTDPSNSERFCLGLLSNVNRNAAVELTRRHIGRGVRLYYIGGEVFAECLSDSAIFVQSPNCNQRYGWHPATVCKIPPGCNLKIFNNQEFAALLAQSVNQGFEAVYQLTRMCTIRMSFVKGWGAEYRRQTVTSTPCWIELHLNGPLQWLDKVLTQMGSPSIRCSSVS

With `CC1=NC(=O)C(N=Nc2ccccc2C(=O)O)N1c1ccccc1` (stereo unspecified), the results for the EC50 (in assay [1]; with HEK293; in assay [2]) were 9.92 µM (active), > 3.94 µM (active) and 16.9 µM (not active), respectively.
With `COc1ccc(Cl)cc1C(=O)Nc1nc2ccccc2[nH]1`, the AC50 (in general, the midpoint of the concentration-response curve, whichever way the signal moves) is 2.05 µM (active) in assay [3], > 52 µM (inactive) in [4], > 52 µM (inactive) in [5] and 2.46 µM (active) in assay [7]. Further, the half-inhibitory concentration (IC50) (in general, the concentration that gives 50% inhibition) in assay [6] was > 39.8 µM (not active).
Consider `O=C(O)C1Nc2cc(Cl)cc(Cl)c2C2C=CCC12` (stereo unspecified), for which the half-maximal inhibitory concentration (IC50) was 18.1 µM (active) in assay [8]; 62.7 µM (active) in [9]; > 100 µM (not active) in [10]; 61.6 µM (active) in [11]; > 100 µM (inactive) in assay [12]; 53 µM (active) in [13].
For the compound `CCSc1nc(NN)c2c3c(sc2n1)CN(C)CC3`, the EC50 (usually the concentration giving half of the maximal effect) on Bcl-2-like protein 10 was 7.43 µM (active).
As to `COc1cccc(C(c2cc3c(cc2O)OCO3)N2CCOCC2)c1O` (stereo unspecified), in assay [14], the IC50 is recorded as > 40 µM (not active).

The values are drawn from ChEMBL document CHEMBL1201862, “PubChem BioAssay data set” (2004).
